In patent publication US12540150B1, “Fluorogenic probe using a Mislow-Evans rearrangement for real-time imaging of hydrogen peroxide” (University of Pittsburgh—Of the Commonwealth System of …, priority 2020, dated 2026):
Where “and” joins values, the source holds several entries; their conditions need not be identical. Identical values can stand only once.

Experiments:
[1] = Kinetics of the reaction of 1 with H2O2
[2] = Selectivity of 1: reaction with ·OH; conditions: for Fluorescence: 40 min minus 0 min
Experimental: The reactivity of 1 with ·OH was also investigated. ·OH was generated through the reaction of FeSO4·7H2O with H2O2. A solution of 100 μM 1 in ethanol (20 μL) was added to 5:95 methanol/50 mM phosphate pH 7 buffer (140 μL). Water or 104 U/mL catalase (20 μL) was added to the mixture. FeSO4·7H2O (27.4 mg) was added to ultrapure water (2.00 mL). This solution was diluted to 20 μM, 200 μM, and 2.00 mM. H2O2 was diluted to 200 μM and 2.00 mM. Equal volumes of FeSO4·7H2O solution and H2O2 were added together, and an aliquot (20 μL) was immediately transferred to the solution containing 1. The fluorescence intensity was measured immediately and again after incubation at 25° C. for 40 min. […] The Fluorescence values in Table 8 are the fluorescence at 40 min minus the fluorescence at 0 min.

[3] = Selectivity of 1: reaction with NO·; conditions: for Fluorescence: 15 min minus 0 min
Experimental: The probe 1 was also exposed to NO· at various concentrations. A NO· solution was generated by the addition of H2SO4 to NaNO2. A round-bottom flask containing a saturated solution of NaNO2 was connected to a series of three bubblers and one Erlenmeyer flask; the first two bubblers contained 30% NaOH, and the third contained ultrapure water. The flask contained ultrapure water (10 mL). The solutions were degassed with argon for 30 min. Then a 2 M solution of H2SO4 (1 mL) was added to the saturated NaNO2 to produce a 1.8 mM solution of NO· (assuming saturation at 25° C.) in the flask. A solution of 10 μM 1 in DMSO (20 μL) was added to 5:95 acetonitrile/50 mM pH 7 potassium phosphate buffer (160 μL). The NO· solution (20 μL) was then added to the mixture containing 1. The fluorescence was measured immediately and again after 15 min at 25° C. Similar results as the results for NO2^− and NO3^− were obtained for NO· (FIG. 22 and Table 13). The data in Table 13 is the fluorescence at 15 min minus the fluorescence at 0 min.

Oc1ccc2c(c1)Oc1cc(O/C=C/C[Se]c3ccccc3)ccc1[C@@]21OCc2ccccc21 [Compound 1, (S,E)-6′-((3-(Phenylselanyl)prop-1-en-1-yl)oxy)-3H-spiro[isobenzofuran-1,9′-xanthen]-3′-ol]
F-F0 (515 nm) ([1]; [H2O2] = 1.25 mM, 630 s): 614,405 and 663,947 and 677,477
F-F0 (515 nm) ([1]; [H2O2] = 1.25 mM, 690 s): 616,203 and 663,123 and 679,640
F-F0 (515 nm) ([1]; [H2O2] = 1.25 mM, 750 s): 616,371 and 663,595 and 679,888
F-F0 (515 nm) ([1]; [H2O2] = 1.25 mM, 810 s): 614,783 and 663,765 and 683,016
F-F0 (515 nm) ([1]; [H2O2] = 1.25 mM, 870 s): 614,819 and 662,173 and 685,799
F-F0 (515 nm) ([1]; [H2O2] = 2.5 mM, 30 s): 425,024 and 405,551 and 398,309
[1] ([1]; [H2O2] = 2.5 mM, 30 s): 0.6285 µM and 0.6785 µM and 0.6971 µM
F-F0 (515 nm) ([1]; [H2O2] = 2.5 mM, 90 s): 539,467 and 612,814 and 630,136
F-F0 (515 nm) ([1]; [H2O2] = 2.5 mM, 150 s): 601,940 and 657,981 and 671,946
F-F0 (515 nm) ([1]; [H2O2] = 2.5 mM, 210 s): 627,168 and 666,435 and 680,181
F-F0 (515 nm) ([1]; [H2O2] = 2.5 mM, 270 s): 636,230 and 665,190 and 679,366
F-F0 (515 nm) ([1]; [H2O2] = 2.5 mM, 330 s): 638,753 and 666,173 and 674,138
F-F0 (515 nm) ([1]; [H2O2] = 2.5 mM, 390 s): 641,141 and 663,899 and 664,993
F-F0 (515 nm) ([1]; [H2O2] = 2.5 mM, 450 s): 640,270 and 661,893 and 664,416
F-F0 (515 nm) ([1]; [H2O2] = 2.5 mM, 510 s): 639,383 and 659,509 and 664,003
F-F0 (515 nm) ([1]; [H2O2] = 2.5 mM, 570 s): 637,346 and 658,746 and 663,104
F-F0 (515 nm) ([1]; [H2O2] = 2.5 mM, 630 s): 637,422 and 656,826 and 661,222
F-F0 (515 nm) ([1]; [H2O2] = 2.5 mM, 690 s): 636,174 and 654,911 and 659,002
F-F0 (515 nm) ([1]; [H2O2] = 2.5 mM, 750 s): 634,294 and 654,494 and 657,410
F-F0 (515 nm) ([1]; [H2O2] = 2.5 mM, 810 s): 631,953 and 653,606 and 654,988
F-F0 (515 nm) ([1]; [H2O2] = 2.5 mM, 870 s): 631,346 and 651,140 and 655,338
reaction with FeSO4 or ·OH [2]: neither FeSO4 nor the ·OH reacted with the probe
Fluorescence ([2]; catalase, FeSO4 0 μM, 0 μM H2O2): 31,506 and 41,340 and 38,159
Fluorescence ([2]; catalase, FeSO4 1 μM, 0 μM H2O2): 28,688 and 24,359 and 45,310
Fluorescence ([2]; catalase, FeSO4 1 μM, 100 μM H2O2): 38,285 and 34,591 and 26,790
Fluorescence ([2]; catalase, FeSO4 10 μM, 0 μM H2O2): 24,822 and 33,920 and 47,376
Fluorescence ([2]; catalase, FeSO4 10 μM, 100 μM H2O2): 32,300 and 42,724 and 50,635
Fluorescence ([2]; catalase, FeSO4 100 μM, 0 μM H2O2): 35,828 and 18,194 and 20,321
Fluorescence ([2]; catalase, FeSO4 100 μM, 10 μM H2O2): 20,486 and 26,765 and 15,423
Fluorescence ([2]; catalase, FeSO4 100 μM, 100 μM H2O2): 46,232 and 46,921 and 52,666
Fluorescence ([2]; no additive, FeSO4 0 μM, 0 μM H2O2): 50,173 and 48,124 and 44,143
Fluorescence ([2]; no additive, FeSO4 0 μM, 10 μM H2O2): 43,929 and 46,186 and 43,989
Fluorescence ([2]; no additive, FeSO4 0 μM, 100 μM H2O2): 85,271 and 94,742 and 95,713
Fluorescence ([2]; no additive, FeSO4 1 μM, 0 μM H2O2): 44,775 and 42,847 and 41,775
Fluorescence ([2]; no additive, FeSO4 1 μM, 10 μM H2O2): 49,425 and 47,262 and 44,251
Fluorescence ([2]; no additive, FeSO4 1 μM, 100 μM H2O2): 86,594 and 103,905 and 91,684
Fluorescence ([2]; no additive, FeSO4 10 μM, 0 μM H2O2): 43,299 and 42,365 and 40,214
Fluorescence ([2]; no additive, FeSO4 10 μM, 10 μM H2O2): 42,933 and 40,908 and 38,283
Fluorescence ([2]; no additive, FeSO4 10 μM, 100 μM H2O2): 91,049 and 90,712 and 94,948
Fluorescence ([2]; no additive, FeSO4 100 μM, 0 μM H2O2): 32,709 and 41,351 and 31,615
Fluorescence ([2]; no additive, FeSO4 100 μM, 10 μM H2O2): 56,260 and 46,281 and 43,358
Fluorescence ([2]; no additive, FeSO4 100 μM, 100 μM H2O2): 99,384 and 99,391 and 95,778
reaction with NO· [3]: did not react
Fluorescence ([3]; 0 μM NO· or H2O2, pH 7, 25° C.): 4,567 and 5,018 and 6,300
Fluorescence ([3]; 0.1 μM NO·): 5,344 and 5,827 and 5,393
Fluorescence ([3]; 1 μM NO·): 6,268 and 5,961 and 5,430
Fluorescence ([3]; 10 μM NO·): 6,104 and 6,207 and 5,735
